Target: T1, Dimer of Gag-Pol polyprotein [489-587] (Human immunodeficiency virus 1, UniProt P12497)
T1 construct: 489-587
Test: Protease Inhibition Assay
Conditions: pH 5; 22 °C
Excerpt: HIV-1 protease was purified and refolded from E. coli inclusion bodies. […] In the presence of HIV-l protease, the substrate is rapidly cleaved into two parts. The biotinylated amino terminal fragment binds to the avidin beads while the FITC-containing carboxy1 terminal fragment is removed through the membrane. […] The bound fluorescence is obtained by processing on an IDEXX Screen Machine. Determination of Ki values with this assay requires analysis under conditions in which substrate concentration resides substantially below Km and the inhibitor concentrations greatly exceeds the Ki value and the enzyme concentration.

SMILES | Ki [nM]
O=c1oc2c(c(O)c1C(c1ccccc1)c1ccccc1)CCCCCC2 [3-(Diphenylmethyl)-5,6,7,8,9,1O-hexahydro-4-hydroxy-W-cycloocta[b]pyran-2-one] | 180
CC(C)C(c1ccccc1)c1c(O)c2c(oc1=O)CCCCCC2 (stereo not given) [5,6,7,8,9,1O-Hexahydro-4-hydroxy-3-(2-methyl-nylpropyl)-W-cycloocta[b]pyran-2-one] | 22
CCCCC(c1ccccc1)c1c(O)c2c(oc1=O)CCCCCC2 (stereo not given) [5,6,7,8,9,10-Hexahydroro-4-hydroxy-1-phenylpentyl)-W-cycloocta[blpyran-2-one] | 62
CC(C)CC(c1ccccc1)c1c(O)c2c(oc1=O)CCCCCC2 (stereo not drawn) [5,6,7,8,9,1O-Hexahydro-4-hydroxy-3-(3-methyl-l-phe-nylbutyl)-W-cycloocta[b]pyran-2-one] | 90
CCCC(c1ccccc1)c1c(O)c2c(oc1=O)CCCCCC2 (stereo not given) [4-hydroxy-3-(1-phenylbutyl)-2H,5H,6H,7H,8H,9H,10H-cycloocta[b]pyran-2-one] | 29
